According to US20200397796A1, “METHODS OF TREATMENT OF CANCER COMPRISING CHK1 INHIBITORS” (SIERRA ONCOLOGY, INC., priority 2018, published 2020):

Legend:
[1] = system: patient-derived bladder carcinoma; assay: In vivo efficacy, patient-derived bladder carcinoma model; set-up: species or system mouse; conditions: in combination with standard-dose gemcitabine; data not shown
Experimental: (§1) A program of in vivo efficacy studies was performed to assess the activity of SRA737 in combination with genotoxic chemotherapy and targeted agents, and as monotherapy.
(§2) One of these models also carried a MYCN amplification. A fourth HGSOC PDX model with partial resistance to PARPi was also sensitive to high dose SRA737 monotherapy.

[2] = system: Renca (renal cancer); assay: In vivo efficacy, Renca syngeneic model; set-up: species or system mouse; conditions: data not shown
Experimental: as §1, §2

[3] = Single dose PK, mouse; assay type: in vivo
Experimental: (§3) The PK of SRA737 have been determined in the mouse, rat, dog and monkey following oral and IV administration (Table 3). […] An acceptable terminal elimination t1/2 was also observed in each species. […] The plasma protein binding of SRA737 at 1 and 10 μM was examined in mouse, minipig, monkey and human plasma using ultracentrifugation and in dog plasma (10 μM) using rapid equilibrium dialysis.

[4] = Three-cycle combination toxicity study with gemcitabine and cisplatin, mouse; assay type: in vivo; conditions: mice; SRA737 with IV gemcitabine and cisplatin, intermittent schedule over 18 days
Excerpt: Clinical combination of SRA737 and gemcitabine in some cases therefore elicited exacerbated hematological and GI toxicities.

[5] = system: Eμ-Myc model of B-cell lymphoma; assay: In vivo efficacy, Eμ-Myc model; set-up: species or system mouse; conditions: data not shown
Experimental: as §1, §2

[6] = Single dose PK, rat; assay type: in vivo
Experimental: as §3

[7] = Excretion in urine and feces, mice; assay type: in vivo, mouse; conditions: 24-hour collection
Experimental: The excretion of SRA737 has been studied in mice and rats administered SRA737 at either 5 mg/kg IV or 10 mg/kg orally. Urine and feces were collected for a 24-hour period after dosing. In mice, renal excretion of intact SRA737 was consistently low (less than 10% of dose) after both oral and IV administration. Following IV administration of SRA737, less than 8% of the dose was recovered as intact drug in the feces while after oral administration this figure was less than 3%. Excretion of intact SRA737 was lower in the rat than in the mouse with <1% of dose excreted renally over 24 hours and less than 1.5% of dose excreted into the feces over 24 hours.

[8] = target: CYP 1A2 (Homo sapiens, UniProt P05177); assay: CYP inhibition, 1A2; assay type: in vitro ADME; conditions: highest concentration investigated
Sequence of CYP 1A2 (P05177 whole entry): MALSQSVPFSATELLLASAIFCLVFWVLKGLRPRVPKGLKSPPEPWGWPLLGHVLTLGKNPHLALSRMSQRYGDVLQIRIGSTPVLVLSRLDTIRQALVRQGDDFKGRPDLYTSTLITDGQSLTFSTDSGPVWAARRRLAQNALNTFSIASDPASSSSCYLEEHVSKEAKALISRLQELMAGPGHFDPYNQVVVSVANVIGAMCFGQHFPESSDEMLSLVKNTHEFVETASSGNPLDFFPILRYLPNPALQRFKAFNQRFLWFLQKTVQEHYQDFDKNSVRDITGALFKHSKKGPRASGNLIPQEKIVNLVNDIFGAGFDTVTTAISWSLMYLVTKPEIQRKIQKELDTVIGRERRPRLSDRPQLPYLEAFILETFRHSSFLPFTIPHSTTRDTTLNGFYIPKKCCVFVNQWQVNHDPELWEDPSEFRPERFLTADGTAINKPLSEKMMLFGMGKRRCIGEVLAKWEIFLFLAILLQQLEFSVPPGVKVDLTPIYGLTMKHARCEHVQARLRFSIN

[9] = system: KPC-1 pancreatic cancer; assay: In vivo efficacy, KPC-1 model; set-up: species or system mouse; conditions: in combination with standard-dose gemcitabine; data not shown
Experimental: as §1, §2

[10] = Single dose PK, dog; assay type: in vivo
Experimental: as §3

[11] = system: OVCAR3 model of HGSOC; assay: In vivo efficacy, OVCAR3 CDX model; set-up: species or system mouse; conditions: data not shown
Experimental: as §1, §2

[12] = system: MOLM-13 model of AML; assay: In vivo efficacy, MOLM-13 model; set-up: species or system mouse; conditions: data not shown
Experimental: as §1, §2

[13] = system: rat hepatocytes; assay: Stability in cryopreserved hepatocytes, rat; assay type: in vitro ADME; conditions: 10 μM, after 4 hours of incubation
Experimental: The formation of SRA737-related metabolites was determined in cryopreserved hepatocytes from human, mouse, rat, dog, minipig and monkey samples after incubation with SRA737 at a nominal concentration of 10 μM for up to 4 hours. […] In the human hepatocyte preparation, approximately 67% of the parent remained after 4 hours of incubation compared to 75% and 7% in the rat and minipig preparations, respectively. Eight human SRA737 metabolites were observed. All SRA737 metabolites formed by human hepatocytes were also formed by monkey hepatocytes. Six metabolites were present at equal or greater abundance in the monkey.

[14] = system: Calu6 human (NSCLC); assay: In vivo efficacy, Calu6 xenograft model; set-up: species or system mouse; conditions: data not shown
Experimental: as §1, §2

[15] = target: CYP 3A4 (Homo sapiens, UniProt P08684); assay: CYP inhibition, 3A4; assay type: in vitro ADME; conditions: highest concentration investigated
Sequence of CYP 3A4 (P08684 whole entry): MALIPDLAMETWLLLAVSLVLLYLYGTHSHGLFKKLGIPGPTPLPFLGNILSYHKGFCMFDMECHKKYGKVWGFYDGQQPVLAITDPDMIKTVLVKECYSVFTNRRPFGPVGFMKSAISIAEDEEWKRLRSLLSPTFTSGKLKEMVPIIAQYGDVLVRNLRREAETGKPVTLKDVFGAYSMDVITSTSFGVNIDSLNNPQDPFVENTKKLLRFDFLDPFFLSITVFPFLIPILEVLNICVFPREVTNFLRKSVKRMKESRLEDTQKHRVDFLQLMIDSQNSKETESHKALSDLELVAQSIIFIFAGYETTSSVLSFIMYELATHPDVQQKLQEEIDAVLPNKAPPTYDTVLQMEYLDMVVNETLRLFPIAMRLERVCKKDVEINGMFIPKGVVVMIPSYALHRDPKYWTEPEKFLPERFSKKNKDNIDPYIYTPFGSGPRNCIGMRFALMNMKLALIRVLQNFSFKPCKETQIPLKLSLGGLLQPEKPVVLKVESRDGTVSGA

[16] = GLP 28-day repeat oral dose toxicity and toxicokinetics, monkey; assay type: in vivo; conditions: for AUC(0-t) / Cmax / half-life: po, daily dosing for 28 days
Excerpt: Reference source not found.6.

[17] = target: CYP 2C19 (Homo sapiens, UniProt P33261); assay: CYP inhibition, 2C19; assay type: in vitro ADME; conditions: highest concentration investigated
Sequence of CYP 2C19 (P33261 whole entry): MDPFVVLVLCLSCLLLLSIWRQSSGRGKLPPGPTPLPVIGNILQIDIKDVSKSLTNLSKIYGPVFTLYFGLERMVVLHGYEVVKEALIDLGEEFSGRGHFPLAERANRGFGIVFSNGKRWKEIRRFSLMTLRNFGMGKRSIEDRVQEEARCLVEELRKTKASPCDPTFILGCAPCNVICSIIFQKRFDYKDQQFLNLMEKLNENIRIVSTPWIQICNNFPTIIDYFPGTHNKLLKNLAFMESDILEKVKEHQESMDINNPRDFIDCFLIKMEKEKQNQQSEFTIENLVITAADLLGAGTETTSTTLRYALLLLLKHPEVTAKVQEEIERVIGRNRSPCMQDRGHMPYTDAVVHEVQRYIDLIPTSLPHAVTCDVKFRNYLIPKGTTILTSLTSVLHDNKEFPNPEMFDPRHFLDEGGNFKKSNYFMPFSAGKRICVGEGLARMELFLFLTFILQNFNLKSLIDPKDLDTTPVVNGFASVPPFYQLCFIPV

[18] = in vivo, Mouse IV 10 mg/kg single dose
[19] = in vivo, Mouse oral 10 mg/kg single dose
[20] = in vivo, Rat IV 5 mg/kg single dose
[21] = in vivo, Rat oral 10 mg/kg single dose
[22] = in vivo, Dog IV 1 mg/kg single dose
[23] = in vivo, Dog oral 5 mg/kg single dose
[24] = in vivo, Monkey Female, 2 mg/kg/day
[25] = in vivo, Monkey Female, 10 mg/kg/day
[26] = in vivo, Monkey Female, 20 mg/kg/day (NOAEL)
[27] = in vivo, Monkey Male, 2 mg/kg/day
[28] = in vivo, Monkey Male, 10 mg/kg/day
[29] = in vivo, Monkey Male, 20 mg/kg/day (NOAEL)

Question: Which antitumor activity [1] does the source give for `N#Cc1cnc(Nc2cc(NCC3CNCCO3)c(C(F)(F)F)cn2)cn1` (centres unmarked) [SRA737, 5-[[4-[[morpholin-2-yl]methylamino]-5-(trifluoromethyl)-2-pyridyl]amino]pyrazine-2-carbonitrile] here?
Answer: Its antitumor activity is “Significant, dose-dependent antitumor activity”.

Question: What about the single agent efficacy [2] of the same compound?
Answer: The single agent efficacy was “single agent efficacy”.

Question: And the Foral ([3]; Mouse oral 10 mg/kg single dose)?
Answer: The Foral was 105%.

Question: And the AUC(0-t) [3, 18]?
Answer: The AUC(0-t) was 3770 ng·h/mL.

Question: And the half-life [3, 18]?
Answer: The half-life was 2.9 h.

Question: What about the AUC(0-t) [3, 19] of the same compound?
Answer: Its AUC(0-t) is 3940 ng·h/mL.

Question: What about the Cmax [3, 19] of the same compound?
Answer: Its Cmax is 610 ng/mL.

Question: What about the Tmax [3, 19] of the same compound?
Answer: The Tmax was 1 h.

Question: And the half-life [3, 19]?
Answer: Its half-life is 2.8 h.

Question: And the “findings exacerbated by SRA737 over the cisplatin/gemcitabine control group” value [4]?
Answer: The value was “reversible marrow toxicity, consequent splenomegaly, and the high-dose intestinal observations”.

Question: What about the single agent efficacy [5] of the same compound?
Answer: The single agent efficacy was “single agent efficacy”.

Question: What about the Foral ([6]; Rat oral 10 mg/kg single dose) of the same compound?
Answer: Its Foral is 42%.

Question: What about the AUC(0-t) [6, 20] of the same compound?
Answer: The AUC(0-t) was 1380 ng·h/mL.

Question: And the half-life [6, 20]?
Answer: The half-life was 1 h.

Question: And the AUC(0-t) [6, 21]?
Answer: Its AUC(0-t) is 1170 ng·h/mL.

Question: And the Cmax [6, 21]?
Answer: Its Cmax is 190 ng/mL.

Question: What about the Tmax [6, 21] of the same compound?
Answer: The Tmax was 2 h.

Question: And the half-life [6, 21]?
Answer: Its half-life is 4.6 h.

Question: What about the “dose recovered as intact drug in the feces” value ([7]; IV 5 mg/kg) of the same compound?
Answer: The value was “less than 8 % of the dose”.

Question: And the “renal excretion of intact SRA737” value ([7]; after both oral (10 mg/kg) and IV (5 mg/kg))?
Answer: The value was “less than 10 % of dose”.

Question: What about the “dose recovered as intact drug in the feces” value ([7]; oral 10 mg/kg) of the same compound?
Answer: The value was “less than 3 % of the dose”.

Question: And the IC50 [8]?
Answer: Its IC50 is 10 to 50 µM.

Question: And the antitumor activity [9]?
Answer: Its antitumor activity is “Significant, dose-dependent antitumor activity”.

Question: And the Foral ([10]; Dog oral 5 mg/kg single dose)?
Answer: The Foral was 86%.

Question: What about the AUC(0-t) [10, 22] of the same compound?
Answer: The AUC(0-t) was 200 ng·h/mL.

Question: And the half-life [10, 22]?
Answer: Its half-life is 2.8 h.

Question: What about the AUC(0-t) [10, 23] of the same compound?
Answer: The AUC(0-t) was 850 ng·h/mL.

Question: What about the Cmax [10, 23] of the same compound?
Answer: Its Cmax is 130 ng/mL.

Question: And the Tmax [10, 23]?
Answer: Its Tmax is 1 to 3 h.

Question: What about the half-life [10, 23] of the same compound?
Answer: The half-life was 3.5 h.

Question: What about the single agent efficacy ([11]; single agent) of the same compound?
Answer: The single agent efficacy was “single agent efficacy”.

Question: And the synergy ([11]; with low-dose gemcitabine)?
Answer: Its synergy is “Synergy”.

Question: And the single agent efficacy [12]?
Answer: The single agent efficacy was “single agent efficacy”.

Question: What about the parent remained [13] of the same compound?
Answer: Its parent remained is 75%.

Question: What about the antitumor activity ([14]; in combination with standard-dose gemcitabine) of the same compound?
Answer: Its antitumor activity is “Significant, dose-dependent antitumor activity”.

Question: And the synergy ([14]; with gemcitabine and carboplatin)?
Answer: Its synergy is “Synergy”.

Question: And the IC50 [15]?
Answer: The IC50 was 10 to 50 µM.

Question: What about the AUC(0-t) [16, 24] of the same compound?
Answer: Its AUC(0-t) is 2580 ng·h/mL.

Question: And the Cmax [16, 24]?
Answer: Its Cmax is 519 ng/mL.

Question: What about the half-life [16, 24] of the same compound?
Answer: The half-life was 8.74 h.

Question: And the AUC(0-t) [16, 25]?
Answer: The AUC(0-t) was 12900 ng·h/mL.

Question: And the Cmax [16, 25]?
Answer: The Cmax was 1870 ng/mL.

Question: What about the half-life [16, 25] of the same compound?
Answer: Its half-life is 6.58 h.

Question: And the AUC(0-t) [16, 26]?
Answer: The AUC(0-t) was 24200 ng·h/mL.

Question: What about the Cmax [16, 26] of the same compound?
Answer: The Cmax was 2320 ng/mL.

Question: And the half-life [16, 26]?
Answer: The half-life was 6 h.

Question: What about the AUC(0-t) [16, 27] of the same compound?
Answer: Its AUC(0-t) is 3240 ng·h/mL.

Question: What about the Cmax [16, 27] of the same compound?
Answer: The Cmax was 365 ng/mL.

Question: And the half-life [16, 27]?
Answer: The half-life was 6.73 h.

Question: And the AUC(0-t) [16, 28]?
Answer: The AUC(0-t) was 17900 ng·h/mL.

Question: What about the Cmax [16, 28] of the same compound?
Answer: The Cmax was 2070 ng/mL.

Question: And the half-life [16, 28]?
Answer: Its half-life is 8.34 h.

Question: And the AUC(0-t) [16, 29]?
Answer: Its AUC(0-t) is 20700 ng·h/mL.

Question: And the Cmax [16, 29]?
Answer: Its Cmax is 3170 ng/mL.

Question: And the half-life [16, 29]?
Answer: Its half-life is 6.84 h.

Question: And the NOAEL at 28 days ([16]; in vivo, monkey, 28-day repeat oral dose, highest dose tested)?
Answer: The NOAEL at 28 days was 20 mg/kg/day.

Question: And the NOAEL ([16]; monkey, 28-day repeat oral dose, highest dose tested)?
Answer: The NOAEL was 240 mg/m^2/day.

Question: And the toxicological findings ([16]; pivotal monkey toxicity study)?
Answer: Its toxicological findings is “absence of toxicological findings”.

Question: And the IC50 [17]?
Answer: The IC50 was 10 to 50 µM.
